ChEMBL document CHEMBL1201862, “PubChem BioAssay data set” (2004)
The source made the active and inactive calls. *1 amine or outer side, *2 acyl side, *3 side chain or, on linkers, in order; H or OH if unused. Where a SMILES comes first, the peptide text is derived from it. Bridges are numbered along the chain shown (N, C = ends). [ ]: non-standard residue; d: D form. ξ: configuration not given here. X1 = CC[C@H](CCC[C@@H](O)[C@@H](C)C(=O)O[C@H](C)[C@@H](C)C/C=C(C)/C(=C\C(=O)[*:1])OC)O[*:2]; NMeξIle = CC[C@H](C)C(NC)C(=O)O; NMeV = CN[C@H](C(=O)O)C(C)C; NMeS = CN[C@@H](CO)C(=O)O

Experiments:
[1] = tested on: HeLa; assay: HeLa cell cytotoxicity, dose response, cytotoxicity control, ATP luminescence, cherry-pick samples (AID 687004); type: functional, cell-based; conditions: Homo sapiens
[2] = inhibitors of firefly luciferase expression or activity, dose response, H4 neuroglioma cells, luminescence (AID 1990); type: functional, cell-based
[3] = Luminescence Cell-Based Dose Response HTS to Identify Inhibitors of 5'UTR Stem-Loop Driven Prion Protein mRNA Translation in H4 Neuroglioblastoma Cells. [Related pubchem assays: 1827 (Project Summary), 1813 (Primary HTS)]; type: functional
[4] = inhibitors of SNCA 5'UTR-driven reporter translation, confirmation, H4 neuroglioma cells, luminescence (AID 1988); type: functional, cell-based
[5] = Counterscreen for […] of the human trace amine associated receptor 1 (TAAR1): Fluorescence-based cell-based high throughput dose response assay to identify nonselective Ga16 agonists.; type: functional
[6] = target: T1, Trace amine-associated receptor 1 (Homo sapiens, UniProt Q96RJ0); assay: Fluorescence-based cell-based high throughput dose response assay to identify antagonists of the human trace amine associated receptor 1 (TAAR1).; type: functional
T1 sequence (Q96RJ0 whole entry): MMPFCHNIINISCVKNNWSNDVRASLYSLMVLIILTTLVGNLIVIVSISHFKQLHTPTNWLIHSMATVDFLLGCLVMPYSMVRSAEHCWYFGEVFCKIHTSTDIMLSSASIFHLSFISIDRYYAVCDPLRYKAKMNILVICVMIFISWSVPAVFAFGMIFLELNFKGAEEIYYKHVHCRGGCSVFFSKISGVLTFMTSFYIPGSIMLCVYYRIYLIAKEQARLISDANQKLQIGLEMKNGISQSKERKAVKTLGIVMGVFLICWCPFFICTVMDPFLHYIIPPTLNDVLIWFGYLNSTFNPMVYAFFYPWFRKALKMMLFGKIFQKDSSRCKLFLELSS

[7] = Counterscreen for antagonists of the human trace amine associated receptor 1 (hTAAR1): Fluorescence-based cell-based high throughput dose response assay to identify nonselective Ga16 antagonists.; type: functional
[8] = target: T1, Trace amine-associated receptor 1; assay: Counterscreen for antagonists of the human trace amine associated receptor 1 (hTAAR1): Fluorescence-based cell-based high throughput dose response assay to identify TAAR1 Agonists.; type: functional
[9] = cytotoxicity in HEK-293T cells, dose response, cytotoxicity control for TCR NF-kB inhibitor project, luminescence, T-cell screen hits (AID 489026); type: functional, cell-based;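 also: cells exposed to compound about 14 hours before the viability readout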
[10] = HEK293T cell cytotoxicity, dose response, cytotoxicity control for HIV Vif inhibitor project, cherry-picks (AID 652208); type: functional, cell-based
[11] = Luminescence Cell-Based Dose Response to Identify Activators of 5'UTR Stem-Loop Driven Prion Protein mRNA Translation in H4-C Neuroglioblastoma Cells. [Related pubchem assays: 1829 (Project Summary), 1814 (Primary HTS)]; type: functional
[12] = Luminescence Cell-Based Dose Response HTS to Identify Activators of Luciferase Translation or Activity in H4 […] Cells. [Related pubchem assays: 1829 (Project Summary), 1814 (Primary HTS)]; type: functional
[13] = tested on: H4; assay: Luminescence Cell-Based Dose Response HTS to Identify Activators of 5'UTR Stem-Loop Driven Prion Protein mRNA Translation in H4 Neuroglioblastoma Cells. [Related pubchem assays: 1829 (Project Summary), 1814 (Primary HTS)]; type: functional; conditions: Homo sapiens
[14] = Luminescence Cell-Based Dose Response to Identify Activators of Luciferase Translation or Activity in H4-C Neuroglioblastoma Cells. [Related pubchem assays: 1829 (Project Summary), 1814 (Primary HTS)]; type: functional
[15] = Luminescence Cell-Based Dose Confirmation to Identify Activators of 5'UTR Stem-Loop Driven Alpha-Synuclein mRNA Translation in H4 Neuroglioblastoma Cells. [Related pubchem assays: 1829 (Project Summary), 1814 (Primary HTS)]; type: functional
[16] = tested on: INS1; assay: beta cell apoptosis inhibitors, cytokine rescue, dose response, luminescence, retest (AID 449756); type: functional, cell-based; conditions: Rattus norvegicus;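 also: cell death triggered by IL-1 beta plus TNF-alpha plus IFN-gamma mixture; protective hits raise ATP signal compared with cytokine alone wells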
[17] = target: T2, Caspase-6 (Homo sapiens, UniProt P55212); assay: human caspase-6 inhibitors, dose response, biochemical, VEID-R110 fluorescence, cherry-pick (AID 720632)
T2 sequence (P55212 whole entry): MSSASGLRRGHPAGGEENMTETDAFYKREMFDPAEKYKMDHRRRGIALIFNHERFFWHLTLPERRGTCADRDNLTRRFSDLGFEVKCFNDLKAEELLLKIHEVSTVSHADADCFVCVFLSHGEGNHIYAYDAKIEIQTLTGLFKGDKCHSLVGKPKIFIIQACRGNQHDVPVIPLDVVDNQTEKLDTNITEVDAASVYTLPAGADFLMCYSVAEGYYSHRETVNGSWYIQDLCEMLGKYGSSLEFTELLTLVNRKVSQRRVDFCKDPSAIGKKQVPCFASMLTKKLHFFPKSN

[18] = target: T2, Caspase-6; assay: human caspase-6 inhibitors, dose response, biochemical, VEID-R110 fluorescence, dry powder retest (AID 743332)
[19] = target: Caspase-7 (Homo sapiens, UniProt P55210); assay: human caspase-7 inhibitors, dose response, selectivity assay for caspase-6 inhibitor project, biochemical, DEVD-R110 fluorescence, cherry-pick (AID 743295)
[20] = tested on: BJ; assay: cytotoxicity toward BJ-TERT fibroblasts, dose response, cell-based, RAS-independent, luminescence (AID 1933); type: functional; conditions: Homo sapiens
[21] = tested on: BJ; assay: cells; type: functional, cell-based; conditions: Homo sapiens
[22] = tested on: BJ; assay: cytotoxicity toward BJ-TERT-LT-ST fibroblasts, dose response, cell-based, RAS-independent, luminescence (AID 1935); type: functional; conditions: Homo sapiens;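 also: BJ fibroblasts immortalized with TERT plus LT and ST oncogenes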
[23] = cytotoxicity toward DRD oncogenic fibroblasts, dose response, cell-based, non-viral oncogenic, luminescence (AID 1934); type: functional; conditions: Homo sapiens
[24] = Luminescence Cell-Based Dose Retest to Confirm Inhibitors of Cancer Stem Cells. [Related pubchem assays (depositor defined):AID2717, AID2721]; type: functional; conditions: Homo sapiens
[25] = target: Heat shock protein HSP 90-alpha (Homo sapiens, UniProt P07900); type: functional, organism-based
[26] = tested on: BJ; assay: cytotoxicity toward Ras-transformed BJeLR fibroblasts, dose response, cell-based, alamar blue fluorescence, cherrypicked samples (AID 2631); type: functional; conditions: Homo sapiens;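 also: confirmatory dose-response assay in RAS-dependent BJ fibroblasts engineered with TERT, LT and ST, with cytotoxicity read by fluorescence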
[27] = target: SWI/SNF-related matrix-associated actin-dependent regulator of chromatin subfamily A member 2 (Homo sapiens, UniProt P51531); assay: Luminescence-based cell-based high throughput dose response assay to identify activators of the function of SWI/SNF related, matrix associated, actin dependent regulator of chromatin, subfamily a, member 2 (SMARCA2, BRM).; type: functional
[28] = Counterscreen for activators of the function of SWI/SNF related, matrix associated, actin dependent regulator of chromatin, subfamily a, member 2 (SMARCA2, BRM): Luminescence-based cell-based high throughput dose response assay to identify non-selective compounds using the VP16 reporter assay.; type: functional
[29] = tested on: A549; assay: A549 cell toxicity, dose response, cytotoxicity control, plate reader, cherry-pick samples (AID 687028); type: functional, cell-based; conditions: Homo sapiens
[30] = target: T3, Scavenger receptor class B member 1 (Mus musculus, UniProt Q61009); assay: inhibitors of SR-BI dependent HDL uptake, dose response, ldlA[mSR-BI] CHO cells, fluorescence plate reader, dry powder, set 9 (AID 623880); type: functional, cell-based
[31] = cytotoxicity in ldlA[mSR-BI] CHO cells, dose response, cytotoxicity control for SR-BI HDL uptake inhibitor project, cell-based, CellTiter-Glo, 24 h, powder samples, set 7 (AID 624026); type: functional
[32] = target: T3, Scavenger receptor class B member 1; assay: inhibitors of SR-BI-mediated HDL uptake, dose response, cell-based, ldlA[mSR-BI] CHO, DiI fluorescence, dry powder, set 10 (AID 624029); type: functional
[33] = cytotoxicity in HeLa cells, dose response, cytotoxicity control, cell-based, 24 h, dry powder, set 2 (AID 651774); type: functional
[34] = Shn3 3'UTR reporter inhibitors, dose response, cell-based, Clone20 osteoblasts, firefly luciferase, cherry-picked (AID 624132); type: functional;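 also: firefly luciferase luminescence from reporter carrying the Shn3 3'UTR in osteoblasts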
[35] = control 3'UTR Renilla luciferase suppression, dose response, counter-screen for Shn3 inhibitor project, cell-based, Clone20-Shn3RL, cherry-picked (AID 624133); type: functional
[36] = target: T4, Protein skinhead-1 (Caenorhabditis elegans, UniProt P34707); type: functional
T4 sequence (P34707 whole entry): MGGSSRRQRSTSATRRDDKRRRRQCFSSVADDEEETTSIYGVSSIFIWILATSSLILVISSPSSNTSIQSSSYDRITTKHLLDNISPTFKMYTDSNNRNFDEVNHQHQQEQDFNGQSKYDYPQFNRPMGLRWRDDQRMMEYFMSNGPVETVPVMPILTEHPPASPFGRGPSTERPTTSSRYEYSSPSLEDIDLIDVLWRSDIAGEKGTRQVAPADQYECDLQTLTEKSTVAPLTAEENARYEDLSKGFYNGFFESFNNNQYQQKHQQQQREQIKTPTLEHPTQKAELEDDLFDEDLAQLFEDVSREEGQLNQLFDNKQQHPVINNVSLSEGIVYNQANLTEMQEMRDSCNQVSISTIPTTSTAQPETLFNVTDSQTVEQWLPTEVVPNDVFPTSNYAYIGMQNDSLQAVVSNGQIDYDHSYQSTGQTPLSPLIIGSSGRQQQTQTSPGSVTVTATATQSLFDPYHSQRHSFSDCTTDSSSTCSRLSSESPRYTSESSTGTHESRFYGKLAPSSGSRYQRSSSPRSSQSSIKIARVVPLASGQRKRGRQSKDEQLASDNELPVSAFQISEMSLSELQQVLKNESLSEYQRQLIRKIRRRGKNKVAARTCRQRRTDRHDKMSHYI

[37] = target: Galanin receptor type 3 (Homo sapiens, UniProt O60755); assay: Fluorescence-based cell-based primary high throughput dose response assay to identify antagonists of the Galanin Receptor 3 (GalR3).; type: functional
[38] = cells; type: functional, cell-based; conditions: HEK-CNG
[39] = target: Paired box protein Pax-8 (Homo sapiens, UniProt Q06710); assay: inhibitors of PAX8-driven TPO luciferase reporter, dose response, RMG-I cells, cherry-pick (AID 687027); type: functional, cell-based;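 also: luciferase reporter driven by Pax8 target thyroperoxidase promoter measured by SteadyGlo luminescence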
Sequence of Paired box protein Pax-8 (Q06710 whole entry): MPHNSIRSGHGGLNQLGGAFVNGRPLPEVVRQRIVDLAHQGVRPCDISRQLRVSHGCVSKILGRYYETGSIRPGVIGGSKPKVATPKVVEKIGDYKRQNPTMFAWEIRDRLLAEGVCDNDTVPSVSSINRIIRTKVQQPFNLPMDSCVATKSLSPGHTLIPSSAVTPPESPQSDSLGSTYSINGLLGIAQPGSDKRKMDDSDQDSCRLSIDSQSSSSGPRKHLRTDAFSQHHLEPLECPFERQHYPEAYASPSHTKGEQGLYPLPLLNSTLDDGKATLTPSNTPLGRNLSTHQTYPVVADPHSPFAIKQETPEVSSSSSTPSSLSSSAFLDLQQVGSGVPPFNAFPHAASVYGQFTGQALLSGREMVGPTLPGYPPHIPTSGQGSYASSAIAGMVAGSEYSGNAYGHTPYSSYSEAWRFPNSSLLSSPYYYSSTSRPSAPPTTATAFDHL

T3 sequence (Q61009 whole entry): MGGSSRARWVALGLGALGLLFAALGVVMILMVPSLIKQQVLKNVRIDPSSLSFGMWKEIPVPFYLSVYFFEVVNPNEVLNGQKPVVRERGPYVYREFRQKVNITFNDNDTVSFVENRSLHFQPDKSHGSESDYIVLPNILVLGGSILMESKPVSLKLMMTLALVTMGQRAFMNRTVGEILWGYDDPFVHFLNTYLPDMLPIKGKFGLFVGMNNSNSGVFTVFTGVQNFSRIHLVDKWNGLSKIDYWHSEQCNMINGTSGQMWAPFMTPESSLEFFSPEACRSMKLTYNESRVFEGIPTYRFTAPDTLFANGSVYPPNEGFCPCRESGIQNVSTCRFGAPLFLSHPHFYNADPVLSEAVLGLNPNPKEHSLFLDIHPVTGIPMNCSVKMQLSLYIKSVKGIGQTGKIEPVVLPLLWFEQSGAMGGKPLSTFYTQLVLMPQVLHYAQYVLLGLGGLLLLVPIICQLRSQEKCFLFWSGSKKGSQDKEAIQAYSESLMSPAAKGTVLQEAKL
Sequence of Caspase-7 (P55210 24-198 limits assumed): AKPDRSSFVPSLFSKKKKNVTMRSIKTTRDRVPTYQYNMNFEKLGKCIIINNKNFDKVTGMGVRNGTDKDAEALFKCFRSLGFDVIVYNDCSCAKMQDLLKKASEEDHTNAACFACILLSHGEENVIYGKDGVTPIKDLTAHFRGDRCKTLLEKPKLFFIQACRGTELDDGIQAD
Sequence of Caspase-7 (P55210 207-303 limits assumed): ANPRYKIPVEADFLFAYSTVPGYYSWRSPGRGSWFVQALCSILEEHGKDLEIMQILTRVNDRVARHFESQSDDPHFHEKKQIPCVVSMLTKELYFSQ
Sequence of SWI/SNF-related matrix-associated actin-dependent regulator of chromatin subfamily A member 2 (P51531 whole entry): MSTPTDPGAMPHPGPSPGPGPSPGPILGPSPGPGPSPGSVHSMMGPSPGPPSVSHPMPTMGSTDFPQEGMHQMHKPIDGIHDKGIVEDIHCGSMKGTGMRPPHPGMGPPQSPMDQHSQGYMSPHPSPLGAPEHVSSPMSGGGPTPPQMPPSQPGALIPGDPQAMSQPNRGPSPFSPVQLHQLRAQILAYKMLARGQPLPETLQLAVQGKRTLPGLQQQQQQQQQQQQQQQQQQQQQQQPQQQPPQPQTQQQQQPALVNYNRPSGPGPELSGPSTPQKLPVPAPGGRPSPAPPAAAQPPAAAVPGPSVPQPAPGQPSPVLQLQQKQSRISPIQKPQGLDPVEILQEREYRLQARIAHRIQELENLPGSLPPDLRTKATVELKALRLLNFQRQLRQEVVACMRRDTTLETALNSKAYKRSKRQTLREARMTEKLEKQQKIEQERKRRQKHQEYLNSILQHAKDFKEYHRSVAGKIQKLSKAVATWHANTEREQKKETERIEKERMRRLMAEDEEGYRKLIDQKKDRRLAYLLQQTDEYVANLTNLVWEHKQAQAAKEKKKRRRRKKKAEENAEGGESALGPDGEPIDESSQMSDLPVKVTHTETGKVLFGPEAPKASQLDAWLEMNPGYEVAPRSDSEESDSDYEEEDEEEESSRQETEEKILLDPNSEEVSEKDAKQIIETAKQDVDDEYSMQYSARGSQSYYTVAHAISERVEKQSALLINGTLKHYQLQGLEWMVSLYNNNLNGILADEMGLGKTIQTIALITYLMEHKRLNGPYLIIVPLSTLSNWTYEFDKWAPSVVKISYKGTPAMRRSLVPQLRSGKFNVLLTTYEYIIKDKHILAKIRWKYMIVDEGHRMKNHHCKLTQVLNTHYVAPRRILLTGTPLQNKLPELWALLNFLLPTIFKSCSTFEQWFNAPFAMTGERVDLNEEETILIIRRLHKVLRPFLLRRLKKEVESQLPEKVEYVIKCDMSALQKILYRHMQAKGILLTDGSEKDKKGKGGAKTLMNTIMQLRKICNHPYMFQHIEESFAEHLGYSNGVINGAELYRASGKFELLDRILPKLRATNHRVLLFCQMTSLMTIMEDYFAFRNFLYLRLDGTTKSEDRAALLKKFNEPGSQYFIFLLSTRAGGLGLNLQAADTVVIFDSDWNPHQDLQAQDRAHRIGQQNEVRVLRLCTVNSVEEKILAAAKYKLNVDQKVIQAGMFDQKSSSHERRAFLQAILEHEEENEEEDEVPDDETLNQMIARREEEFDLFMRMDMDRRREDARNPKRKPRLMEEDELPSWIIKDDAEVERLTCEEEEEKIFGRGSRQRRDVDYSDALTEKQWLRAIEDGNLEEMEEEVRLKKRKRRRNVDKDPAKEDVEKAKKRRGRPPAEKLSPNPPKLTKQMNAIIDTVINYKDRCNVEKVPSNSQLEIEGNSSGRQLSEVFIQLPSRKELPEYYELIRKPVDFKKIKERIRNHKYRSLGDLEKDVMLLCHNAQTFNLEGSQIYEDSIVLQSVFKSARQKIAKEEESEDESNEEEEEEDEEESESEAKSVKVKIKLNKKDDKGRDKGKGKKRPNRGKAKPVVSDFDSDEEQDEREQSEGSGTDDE
Sequence of Galanin receptor type 3 (O60755 whole entry): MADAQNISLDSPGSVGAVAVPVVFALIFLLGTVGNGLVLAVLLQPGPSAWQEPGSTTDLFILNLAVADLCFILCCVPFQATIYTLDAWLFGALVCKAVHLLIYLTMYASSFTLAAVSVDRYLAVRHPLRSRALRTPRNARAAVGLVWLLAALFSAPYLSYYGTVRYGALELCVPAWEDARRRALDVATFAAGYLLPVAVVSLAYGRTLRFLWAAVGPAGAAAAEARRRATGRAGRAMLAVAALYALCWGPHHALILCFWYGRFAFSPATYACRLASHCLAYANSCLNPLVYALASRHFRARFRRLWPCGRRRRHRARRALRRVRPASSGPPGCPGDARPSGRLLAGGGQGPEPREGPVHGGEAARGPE

COc1ccc(C(=O)NC(=S)Nc2ccccc2N2CCOCC2)cc1[N+](=O)[O-]
AC50 [1]: > 52 µM (inactive)

Cc1ccccc1N(C(=O)c1snc(C(N)=O)c1N)C(C(=O)NC1CCCCC1)c1ccc(O)cc1 (stereo not given)
EC50 [2]: 12.8 µM (active) | EC50 [3]: > 120 µM (not active) | EC50 [4]: 77.7 µM (active) | EC50 [5]: > 29.9 µM (inactive) | IC50 [6]: 3.16 µM (active) | IC50 [7]: > 29.9 µM (inactive) | EC50 [8]: > 29.9 µM (inactive)

CCCOCCOC(=O)c1[nH]c2c(c1C)C(=O)CC(c1cc(OC)ccc1OC)C2 (stereo not given)
IC50 [9]: > 80 µM (inactive) | AC50 [10]: > 52 µM (inactive)

[O-][n+]1onc2c1CCc1c-2nn(-c2ccccc2Cl)[n+]1[O-]
EC50 [11]: > 12 µM (not active) | EC50 [12]: < 0.1 µM (inconclusive) | EC50 [13]: > 120 µM (not active) | EC50 [14]: 1.41 µM (active) | EC50 [15]: 0.766 µM (active) | AC50 [16]: 6.94 µM (active) | AC50 [17]: 0.651 µM (active) | AC50 [18]: 4.66 µM (active) | AC50 [19]: > 70 µM (inactive)

O=C1C=C(c2cccs2)C[C@H](c2ccccc2)[C@H]1n1nnc([N+](=O)[O-])n1
EC50 [20]: 10.3 µM (inconclusive) | EC50 [21]: 9.02 µM (inconclusive) | EC50 [22]: 3.85 µM (inconclusive) | EC50 [23]: 5.51 µM (inconclusive) | AC50 [24]: 0.835 µM (active) | AC50 [25]: 7.95 µM (active) | EC50 [26]: 0.242 µM (active) | AC50 [16]: 4.33 µM (active) | EC50 [27]: > 91.2 µM (inactive) | EC50 [28]: > 91.2 µM (inactive)

COc1ccc(S(=O)(=O)Nc2ccc3c(c2)C(=O)N([C@@H](C)CO)C[C@H](C)[C@H](CN(C)C(=O)Nc2ccc(C(F)(F)F)cc2)OCCCC[C@H](C)O3)cc1
AC50 [29]: 24.9 µM (active)

CC.CCCCCCC1CCC/C1=N\NC(N)=S (stereo not given)
AC50 [30]: 0.00737 µM (active) | AC50 [31]: 2.08 µM (active) | AC50 [32]: 0.005 µM (active)

CCn1nnnc1NC(=O)c1ccc(N2CCCC2)cc1
AC50 [33]: 19.7 µM (active)

CC[C@@H]1CCC[C@@H](O)[C@@H](C)C(=O)O[C@H](C)[C@@H](C)C/C=C(C)/C(OC)=C\C(=O)N(C)C([C@@H](C)CC)C(=O)N(C)[C@@H](C(C)C)C(=O)N(C)[C@@H](COC)C(=O)N2CCC[C@H]2C(=O)N(C)[C@@H](C(C)C)C(=O)N2CCC[C@H]2C(=O)O1 (stereo not given in full) ([NMeξIle][NMeV][NMeS](Me)P[NMeV]P; linker N-C via X1)
AC50 [34]: < 0.26 µM (active) | AC50 [35]: 0.317 µM (active) | IC50 [36]: 57.6 µM (inactive) | IC50 [37]: 0.0171 µM (active) | EC50 [38]: > 29.9 µM (inactive) | AC50 [39]: < 0.26 µM (active)
